Test results reported in the NIST ThermoML archive (doi:10.1016/j.fluid.2007.07.066).

Experiment: wn = mass fraction of the nth substance listed
Settings: 101 kPa, Liquid; for speed of sound: Sing-around technique in a fixed-path interferometer

CCCO [propan-1-ol] + O
Settings	mass density, 283.15 K [kg/m3]	mass density, 288.15 K [kg/m3]	mass density, 293.15 K [kg/m3]	mass density, 298.15 K [kg/m3]	mass density, 303.15 K [kg/m3]	speed of sound, 283.15 K [m/s]	speed of sound, 288.15 K [m/s]	speed of sound, 293.15 K [m/s]	speed of sound, 298.15 K [m/s]	speed of sound, 303.15 K [m/s]
w1 = 0.05	992.444	991.727	990.715	989.431	987.905	1501.2	1514.5	1526.2	1536.2	1544.7
w1 = 0.1	987.274	986.285	985.011	983.475	981.701	1547.4	1555.6	1562.4	1568	1572.2
w1 = 0.15	983.045	981.663	980.011	978.117	976.004	1584	1586.5	1588.1	1588.6	1588.1
